The text below walks through data of patent US9938274B1, “Naphthyridine compounds, medical combinations and use thereof” (Nanjing Natinefy Pharmatech Co., Ltd., priority 2016, dated 2018).

Molecules are shown by their SMILES.

The test system of one series is U87MG tumor. Nature of the series: Tumor xenograft model, U87MG, tumor growth inhibition. The series is classed as in vivo, nude mice (BALB/cA nu/nu). The note with it: 10 mg/kg p.o. QD, day 22.
Series [1] in a line: In vivo pharmacokinetic study in rats. How it is done:
An In Vivo Pharmacokinetic Study in Rats
For intravenous injection, rats are given a dose of 1 mg/kg. For oral administration, rats are given a dose of 5 mg/kg. […] The whole blood is centrifuged at 8000 rpm for 5 min to collect plasma, which is then transferred to 96-well pallet, and stored at −20° C. till LC-MS/MS testing.
Pharmacokinetic parameters among rats after medication are estimated using the non-compartment model of software WinNonlin.
The peak concentration, Cmax: the actual measurements are used;

The target of the next series is VEGFR-2 (h) (Homo sapiens (Human), UniProt P35968). Put plainly: HTRF KinEASE TK kinase inhibition assay, VEGFR-2. The class given is biochemical.
Sequence of VEGFR-2 (h) (P35968 20-1356): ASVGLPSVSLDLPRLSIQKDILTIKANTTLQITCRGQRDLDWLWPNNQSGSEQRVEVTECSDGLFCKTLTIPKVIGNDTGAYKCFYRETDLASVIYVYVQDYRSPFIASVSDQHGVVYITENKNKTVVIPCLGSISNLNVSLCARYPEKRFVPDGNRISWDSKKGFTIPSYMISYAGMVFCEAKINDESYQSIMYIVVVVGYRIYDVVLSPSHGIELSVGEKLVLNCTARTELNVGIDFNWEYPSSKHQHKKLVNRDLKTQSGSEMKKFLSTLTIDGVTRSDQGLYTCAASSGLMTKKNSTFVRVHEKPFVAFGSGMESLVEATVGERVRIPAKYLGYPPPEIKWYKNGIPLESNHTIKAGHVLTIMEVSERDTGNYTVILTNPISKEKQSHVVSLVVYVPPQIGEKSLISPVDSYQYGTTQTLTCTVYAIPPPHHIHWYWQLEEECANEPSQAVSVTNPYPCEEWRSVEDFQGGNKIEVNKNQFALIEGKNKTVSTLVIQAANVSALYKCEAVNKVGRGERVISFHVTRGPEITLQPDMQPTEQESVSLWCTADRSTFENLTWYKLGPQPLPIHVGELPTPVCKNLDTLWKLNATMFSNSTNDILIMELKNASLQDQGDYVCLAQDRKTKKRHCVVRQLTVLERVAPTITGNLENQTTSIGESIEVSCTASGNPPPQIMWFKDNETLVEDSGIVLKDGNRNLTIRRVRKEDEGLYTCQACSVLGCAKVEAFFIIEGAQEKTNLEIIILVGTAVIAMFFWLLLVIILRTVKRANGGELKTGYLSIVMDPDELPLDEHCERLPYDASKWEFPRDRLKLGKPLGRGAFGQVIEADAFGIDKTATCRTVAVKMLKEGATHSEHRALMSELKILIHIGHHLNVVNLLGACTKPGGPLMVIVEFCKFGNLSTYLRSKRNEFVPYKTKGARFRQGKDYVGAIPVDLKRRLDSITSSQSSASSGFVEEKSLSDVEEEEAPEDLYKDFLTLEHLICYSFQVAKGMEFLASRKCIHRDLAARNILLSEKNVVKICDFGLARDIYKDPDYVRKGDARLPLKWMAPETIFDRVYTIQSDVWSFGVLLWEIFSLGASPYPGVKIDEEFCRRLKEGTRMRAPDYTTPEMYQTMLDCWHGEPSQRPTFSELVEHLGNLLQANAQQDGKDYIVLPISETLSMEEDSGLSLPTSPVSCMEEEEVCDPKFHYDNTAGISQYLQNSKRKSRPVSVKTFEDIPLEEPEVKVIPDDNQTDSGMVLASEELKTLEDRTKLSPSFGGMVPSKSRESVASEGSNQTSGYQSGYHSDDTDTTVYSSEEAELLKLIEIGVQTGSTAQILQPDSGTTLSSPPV
The next series addresses c-Met (h) (Homo sapiens (Human), UniProt P08581). Put plainly: HTRF KinEASE TK kinase inhibition assay, c-Met. The series is classed as biochemical.

Sequence of c-Met (h) (P08581 25-1390): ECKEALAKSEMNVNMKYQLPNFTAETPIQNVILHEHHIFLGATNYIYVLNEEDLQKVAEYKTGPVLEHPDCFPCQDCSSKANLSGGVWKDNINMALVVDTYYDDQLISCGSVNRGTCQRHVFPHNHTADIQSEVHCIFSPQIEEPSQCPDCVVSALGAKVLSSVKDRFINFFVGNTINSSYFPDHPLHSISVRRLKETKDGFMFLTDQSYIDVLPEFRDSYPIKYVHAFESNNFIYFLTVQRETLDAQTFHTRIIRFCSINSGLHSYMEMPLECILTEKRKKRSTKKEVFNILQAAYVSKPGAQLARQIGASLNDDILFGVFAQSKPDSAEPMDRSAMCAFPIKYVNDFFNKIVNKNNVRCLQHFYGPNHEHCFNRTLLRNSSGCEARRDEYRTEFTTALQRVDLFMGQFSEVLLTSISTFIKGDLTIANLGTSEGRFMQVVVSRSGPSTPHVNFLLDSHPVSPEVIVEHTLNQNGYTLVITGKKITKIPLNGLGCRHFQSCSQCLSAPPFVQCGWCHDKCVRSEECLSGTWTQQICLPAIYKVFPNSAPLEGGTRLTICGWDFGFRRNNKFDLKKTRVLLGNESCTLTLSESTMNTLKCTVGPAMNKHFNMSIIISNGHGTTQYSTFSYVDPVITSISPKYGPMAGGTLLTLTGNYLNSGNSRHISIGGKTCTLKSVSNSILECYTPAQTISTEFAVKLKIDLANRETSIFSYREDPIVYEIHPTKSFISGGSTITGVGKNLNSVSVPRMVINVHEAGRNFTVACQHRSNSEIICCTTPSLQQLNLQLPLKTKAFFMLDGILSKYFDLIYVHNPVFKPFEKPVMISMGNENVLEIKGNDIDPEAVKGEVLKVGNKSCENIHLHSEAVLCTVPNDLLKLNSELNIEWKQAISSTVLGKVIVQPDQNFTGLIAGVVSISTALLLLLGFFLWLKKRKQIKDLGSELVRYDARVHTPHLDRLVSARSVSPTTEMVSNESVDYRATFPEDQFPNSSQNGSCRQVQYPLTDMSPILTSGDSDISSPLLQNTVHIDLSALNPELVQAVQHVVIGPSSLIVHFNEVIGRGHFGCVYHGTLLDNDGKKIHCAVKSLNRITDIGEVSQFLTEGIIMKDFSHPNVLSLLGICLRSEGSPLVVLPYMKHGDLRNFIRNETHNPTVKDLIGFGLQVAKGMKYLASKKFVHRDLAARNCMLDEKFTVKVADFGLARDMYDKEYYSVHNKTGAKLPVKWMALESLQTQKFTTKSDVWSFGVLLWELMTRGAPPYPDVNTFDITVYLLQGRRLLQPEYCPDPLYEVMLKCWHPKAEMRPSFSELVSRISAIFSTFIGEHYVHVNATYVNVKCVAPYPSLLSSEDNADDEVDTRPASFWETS

Consider `COc1ccc2c(Oc3ccc(Nc4nccc5[nH]cc(-c6ccc(F)cc6)c(=O)c45)cc3F)ccnc2c1` [Comparative compound A, reference compound], for which the “Tumor growth inhibition rate, % TGI” value in the series with U87MG tumor is 55.3%.
As to `O=c1c(-c2ccc(F)cc2)c[nH]c2ccnc(Nc3ccc(Oc4ccnc5cc(OCCO)ccc45)c(F)c3)c12` [Comparative compound C, reference compound], in series [1] (5 mg/kg i.g.), the CL amounted to 31.7 mL/min/kg and the distribution volume (Vz) stood at 7.89 L/kg. Also, in series [1] (rat, plasma, iv, 1 mg/kg i.v.), the AUC(0-t) was 2290 ng·h/mL, the Cmax worked out at 970 ng/mL, the clearance was 4.83 mL/min/kg and the half-life is 2.35 h. The Vd in series [1] (rat, plasma, iv, 1 mg/kg i.v., read-out: Vz) worked out at 1.21 L/kg. Further, in series [1] (rat, plasma, oral, 5 mg/kg i.g. vs 1 mg/kg i.v., read-out: F (absolute bioavailability)), the bioavailability amounted to 16.2%. In addition, in series [1] (rat, plasma, po, 5 mg/kg i.g.), the AUC(0-t) is 1850 ng·h/mL, the concentration peaked (Cmax) at 530 ng/mL and the half-life was 2.14 h.
With `COC(C)(C)COc1ccc2c(Oc3ccc(Nc4nccc5[nH]cc(-c6ccc(F)cc6)c(=O)c45)cc3F)ccnc2c1` [Comparative compound D, reference compound], the IC50 at VEGFR-2 (h) was 60 nM.
Regarding `COc1cc2c(Oc3ccc(Nc4nccc5[nH]cc(-c6ccc(F)cc6)c(=O)c45)cc3F)ccnc2cc1OCC(C)(C)O` [Example 1, 5-((3-fluoro-4-((7-(2-hydroxy-2-methylpropoxy)-6-methoxyquinolin-4-yl)oxy)-phenyl)amino)-3-(4-fluorophenyl)-1,6-naphthyridin-4(1H)-one], the IC50 on c-Met (h) came out at 19.4 nM.
Still for that read-out and setting: to `COc1cc2c(Oc3ccc(Nc4nccc5[nH]cc(-c6ccc(F)cc6)c(=O)c45)cc3F)ccnc2cc1OCC(C)O` (centres unmarked) [Example 2, 5-((3-fluoro-4-((7-(2-hydroxypropoxy)-6-methoxyquinolin-4-yl)oxy)phenyl)-amino)-3-(4-fluorophenyl)-1,6-naphthyridin-4(1H)-one] belongs 15.6 nM.
Same read-out and setting: the figure for `COc1cc2c(Oc3ccc(Nc4nccc5[nH]cc(-c6ccccc6)c(=O)c45)cc3F)ccnc2cc1OCC(C)(C)O` [Example 3, 5-((3-fluoro-4-((7-(2-hydroxy-2-methylpropoxy)-6-methoxyquinolin-4-yl)oxy)-phenyl)amino)-3-phenyl-1,6-naphthyridin-4(1H)-one] is 20.1 nM.
Same read-out and setting: the figure for `CC(C)(O)COc1ccc2c(Oc3ccc(Nc4nccc5[nH]cc(-c6ccccc6F)c(=O)c45)cc3F)ccnc2c1` [Example 5, 5-((3-fluoro-4-((7-(2-hydroxy-2-methylpropoxy)quinolin-4-yl)oxy)phenyl)amino)-3-(2-fluorophenyl)-1,6-naphthyridin-4(1H)-one] is 9.4 nM.
With `CC(C)(O)COc1ccc2c(Oc3ccc(Nc4nccc5[nH]cc(-c6cccc(F)c6)c(=O)c45)cc3F)ccnc2c1` [Example 6, 5-((3-fluoro-4-((7-(2-hydroxy-2-methylpropoxy)quinolin-4-yl)oxy)phenyl)amino)-3-(3-fluorophenyl)-1,6-naphthyridin-4(1H)-one], the IC50 on c-Met (h) amounted to 7.9 nM.
The same measure, in the same setting: the figure for `COc1cc2nccc(Oc3ccc(Nc4nccc5[nH]cc(-c6ccc(F)cc6)c(=O)c45)cc3F)c2cc1OCC(C)(C)O` [Example 8, 5-((3-fluoro-4-((6-(2-hydroxy-2-methylpropoxy)-7-methoxyquinolin-4-yl)oxy)-phenyl)amino)-3-(4-fluorophenyl)-1,6-naphthyridin-4(1H)-one] is 16.8 nM; for `COc1cc2nccc(Oc3ccc(Nc4nccc5[nH]cc(-c6ccccc6)c(=O)c45)cc3F)c2cc1OCC(C)(C)O` [Example 9, 5-((3-fluoro-4-((6-(2-hydroxy-2-methylpropoxy)-7-methoxyquinolin-4-yl)oxy)-phenyl)amino)-3-phenyl-1,6-naphthyridin-4(1H)-one] it is 13.3 nM.
For the compound `Cn1cc(-c2ccc(F)cc2)c(=O)c2c(Nc3ccc(Oc4ccnc5cc(OCC(C)(C)O)ccc45)c(F)c3)nccc21` [Example 10, 5-((3-fluoro-4-((7-(2-hydroxy-2-methylpropoxy)quinolin-4-yl)oxy)phenyl)amino)-3-(4-fluorophenyl)-1-methyl-1,6-naphthyridin-4(1H)-one], the IC50 was 12.7 nM at c-Met (h) and more than 5000 nM at VEGFR-2 (h).
For `CCn1cc(-c2ccc(F)cc2)c(=O)c2c(Nc3ccc(Oc4ccnc5cc(OCC(C)(C)O)ccc45)c(F)c3)nccc21` [Example 11, 1-ethyl-5-((3-fluoro-4-((7-(2-hydroxy-2-methylpropoxy)quinolin-4-yl)oxy)phenyl)-amino)-3-(4-fluorophenyl)-1,6-naphthyridin-4(1H)-one] the same measures were 9.5 nM and more than 5000 nM.
For `CCCn1cc(-c2ccc(F)cc2)c(=O)c2c(Nc3ccc(Oc4ccnc5cc(OCC(C)(C)O)ccc45)c(F)c3)nccc21` [Example 12, 5-((3-fluoro-4-((7-(2-hydroxy-2-methylpropoxy)quinolin-4-yl)oxy)phenyl)amino)-3-(4-fluorophenyl)-1-propyl-1,6-naphthyridin-4(1H)-one] the same measures were 7.2 nM and more than 5000 nM.
The like results for `CC(C)n1cc(-c2ccc(F)cc2)c(=O)c2c(Nc3ccc(Oc4ccnc5cc(OCC(C)(C)O)ccc45)c(F)c3)nccc21` [Example 13, 5-((3-fluoro-4-((7-(2-hydroxy-2-methylpropoxy)quinolin-4-yl)oxy)phenyl)amino)-3-(4-fluorophenyl)-1-isopropyl-1,6-naphthyridin-4(1H)-one] were, in that order, 9 nM and more than 5000 nM.
Consider `CC(C)(O)COc1ccc2c(Oc3ccc(Nc4nccc5c4c(=O)c(-c4ccc(F)cc4)cn5C4CC4)cc3F)ccnc2c1` [Example 14, 1-cyclopropyl-5-((3-fluoro-4-((7-(2-hydroxy-2-methylpropoxy)quinolin-4-yl)oxy)-phenyl)amino)-3-(4-fluorophenyl)-1,6-naphthyridin-4(1H)-one], for which the IC50 at c-Met (h) is 14.3 nM; against VEGFR-2 (h) it was more than 5000 nM.
The like results for `CC(C)(O)COc1ccc2c(Oc3ccc(Nc4nccc5c4c(=O)c(-c4ccc(F)cc4)cn5CC4CO4)cc3F)ccnc2c1` (centres unmarked) [Example 15, 5-((3-fluoro-4-((7-(2-hydroxy-2-methylpropoxy)quinolin-4-yl)oxy)phenyl)amino)-3-(4-fluorophenyl)-1-(oxiran-2-ylmethyl)-1,6-naphthyridin-4(1H)-one] were, in that order, 22.4 nM and more than 5000 nM.
`COCCn1cc(-c2ccc(F)cc2)c(=O)c2c(Nc3ccc(Oc4ccnc5cc(OCC(C)(C)O)ccc45)c(F)c3)nccc21` [Example 16, 5-((3-fluoro-4-((7-(2-hydroxy-2-methylpropoxy)quinolin-4-yl)oxy)phenyl)amino)-3-(4-fluorophenyl)-1-(2-methoxyethyl)-1,6-naphthyridin-4(1H)-one]: the IC50 against c-Met (h) is 14.4 nM; against VEGFR-2 (h), more than 5000 nM.
For `CC(C)(O)COc1ccc2c(Oc3ccc(Nc4nccc5c4c(=O)c(-c4ccc(F)cc4)cn5CCO)cc3F)ccnc2c1` [Example 17, 5-((3-fluoro-4-((7-(2-hydroxy-2-methylpropoxy)quinolin-4-yl)oxy)phenyl)amino)-3-(4-fluorophenyl)-1-(2-hydroxyethyl)-1,6-naphthyridin-4(1H)-one] the same measures were 40 nM and more than 5000 nM.
The like results for `CC(C)(O)COc1ccc2c(Oc3ccc(Nc4nccc5c4c(=O)c(-c4ccc(F)cc4)cn5Cc4ccccc4)cc3F)ccnc2c1` [Example 18, 1-benzyl-5-((3-fluoro-4-((7-(2-hydroxy-2-methylpropoxy)quinolin-4-yl)oxy)phenyl)-amino)-3-(4-fluorophenyl)-1,6-naphthyridin-4(1H)-one] were, in that order, 40.3 nM and more than 5000 nM.
